The values that follow come from patent US10329309B2, “3-(3H-imidazo[4,5-B]pyridin-2-yl)-1H-pyrazolo[4,3-B]pyridines and therapeutic uses thereof” (Samumed, LLC, priority 2015, dated 2019).

The test system of the experiment is primary human fibroblasts derived from IPF patients (LL29 cells), α-smooth muscle actin (αSMA). The experiment in a line: Inhibition of the fibrotic process: TGF-β1-treated primary human fibroblasts from IPF patients, αSMA staining. Conditions: Fibroblast, 96 h, 4 days; for EC50: LL29 fibroblasts from IPF patients, TGF-β1 20 ng/mL, inhibition of fibrotic process; for inhibition at 10 µM: LL29 fibroblasts, TGF-β1 treated, read-out: percent inhibition at 10 μM (given for EC50 of >10 μM). The experiment is classed as cell-based. The text has this:
Representative compounds were screened using primary human fibroblasts (derived from IPF patients) treated with TGF-β1 to determine their ability to inhibit the fibrotic process.
Primary human fibroblasts derived from IPF patients (LL29 cells) [^1Xiaoqiu Liu, et. al., “Fibrotic Lung Fibroblasts Show Blunted Inhibition by cAMP Due to Deficient cAMP Response Element-Binding Protein Phosphorylation”, Journal of Pharmacology and Experimental Therapeutics (2005), 315(2), 678-687; ^2Watts, K. L., et. al., “RhoA signaling modulates cyclin D1 expression in human lung fibroblasts; implications for idiopathic pulmonary fibrosis”, Respiratory Research (2006), 7(1), 88] were obtained from American Type Culture Collection (ATCC) and expanded in F12 medium supplemented with 15% Fetal Bovine Serum and Penicillin/Streptomycin.
Each compound was dissolved in DMSO as a 10 mM stock and used to prepare compound source plates. Serial dilution (1:2, 11-point dose-response curves from 10 μM to 1.87 nM) and compound transfer was performed using the ECHO 550 (Labcyte, Sunnyvale, Calif.) into 384-well clear bottom assay plates (Greiner Bio-One) with appropriate DMSO backfill for a final DMSO concentration of 0.1%. LL29 cells are plated at 1,500 cells/well in 80 μL/well F12 medium supplemented with 1% Fetal Bovine Serum. One hour after addition of the cells, TGF-β1 (Peprotech; 20 ng/mL) was added to the plates to induce fibrosis (ref. 1 and 2 above). Wells treated with TGF-β1 and containing DMSO were used as controls. Cells were incubated at 37° C. and 5% CO2 for 4 days. Following incubation for 4 days, SYTOX green nucleic acid stain (Life Technologies [Thermo Fisher Scientific]) was added to the wells at a final concentration of 1 μM and incubated at room temperature for 30 min. Cells were then fixed using 4% formaldehyde (Electron Microscopy Sciences), washed 3 times with PBS followed by blocking and permeabilization using 3% Bovine Serum Albumin (BSA; Sigma) and 0.3% Triton X-100 (Sigma) in PBS. Cells were then stained with antibody specific to α-smooth muscle actin (αSMA; Abcam) (ref. 1 and 2 above) in 3% Bovine Serum Albumin (BSA; Sigma) and 0.3% Triton X-100 (Sigma) in PBS, and incubated overnight at 4° C. Cells were then washed 3 times with PBS, followed by incubation with Alexa Flor-647 conjugated secondary antibody (Life Technologies [Thermo Fisher Scientific]) and DAPI at room temperature for 1 hour. Cells were then washed 3 times with PBS and plates were sealed for imaging. αSMA staining was imaged by excitation at 630 nm and emission at 665 nm and quantified using the Compartmental Analysis program on the CellInsight CX5 (Thermo Scientific). Dead or apoptotic cells were excluded from analysis based on positive SYTOX green staining. % of total cells positive for αSMA were counted in each well and normalized to the average of 11 wells treated with TGF-β1 on the same plate using Dotmatics' Studies Software. The normalized averages (fold change over untreated) of 3 replicate wells for each compound concentration were used to create dose-responses curves and EC50 values were calculated using non-linear regression curve fit in the Dotmatics' Studies Software. For EC50 of >10 μM, the percent inhibition at 10 μM is provided.

What is called EC50 is the midpoint of the concentration-response curve. A higher EC50 goes with a need for much substance. Molecule `O=C(CC1CCNCC1)Nc1cncc(-c2ccc3[nH]nc(-c4nc5c(-c6ccccn6)ccnc5[nH]4)c3n2)c1` [Compound 593, 2-(Piperidin-4-yl)-N-(5-(3-(7-(pyridin-2-yl)-3H-imidazo[4,5-b]pyridin-2-yl)-1H-pyrazolo[4,3-b]pyridin-5-yl)pyridin-3-yl)acetamide] gave an EC50 of 0.913 µM. This lies in the sub-micromolar range.

`O=C(CC1CCNCC1)Nc1cncc(-c2ccc3[nH]nc(-c4nc5c(-c6ccsc6)ccnc5[nH]4)c3n2)c1` [Compound 673, 2-(Piperidin-4-yl)-N-(5-(3-(7-(thiophen-3-yl)-3H-imidazo[4,5-b]pyridin-2-yl)-1H-pyrazolo[4,3-b]pyridin-5-yl)pyridin-3-yl)acetamide]: the midpoint of the response, the EC50, lay at 4.75 µM.

Turning to `c1cc(-c2ccoc2)c2nc(-c3n[nH]c4ccc(-c5cncc(OCCN6CCCC6)c5)nc34)[nH]c2n1` [Compound 690, 3-(7-(Furan-3-yl)-3H-imidazo[4,5-b]pyridin-2-yl)-5-(5-(2-(pyrrolidin-1-yl)ethoxy)pyridin-3-yl)-1H-pyrazolo[4,3-b]pyridine], the EC50 turned out to be 4.75 µM.

The molecule `CN(C)CCNc1cc(F)cc(-c2ccnc3[nH]c(-c4n[nH]c5ccc(-c6cnccn6)nc45)nc23)c1` [Compound 792, N^1-(3-Fluoro-5-(2-(5-(pyrazin-2-yl)-1H-pyrazolo[4,3-b]pyridin-3-yl)-3H-imidazo[4,5-b]pyridin-7-yl)phenyl)-N^2,N^2-dimethylethane-1,2-diamine] yielded an EC50 of 2.24 µM.

In turn, `CN1CCN(c2ccnc3[nH]c(-c4n[nH]c5ccc(-c6cncc(NC(=O)C7CCCC7)c6)nc45)nc23)CC1` [Compound 246, N-(5-(3-(7-(4-Methylpiperazin-1-yl)-3H-imidazo[4,5-b]pyridin-2-yl)-1H-pyrazolo[4,3-b]pyridin-5-yl)pyridin-3-yl)cyclopentanecarboxamide] yielded an EC50 of 2.24 µM.

As a reminder, the inhibition is the percentage by which the read-out fell short of the control. With `Cn1cc(-c2ccc3[nH]nc(-c4nc5c(-c6cc(F)cc(CNS(C)(=O)=O)c6)ccnc5[nH]4)c3n2)cn1` [Compound 764, N-(3-Fluoro-5-(2-(5-(1-methyl-1H-pyrazol-4-yl)-1H-pyrazolo[4,3-b]pyridin-3-yl)-3H-imidazo[4,5-b]pyridin-7-yl)benzyl)methanesulfonamide], the EC50 is more than 10 µM and the inhibition at 10 µM was determined as 26.8%.

`CN1CCN(c2ccnc3[nH]c(-c4n[nH]c5ccc(-c6cncnc6)nc45)nc23)CC1` [Compound 251, 3-(7-(4-Methylpiperazin-1-yl)-3H-imidazo[4,5-b]pyridin-2-yl)-5-(pyrimidin-5-yl)-1H-pyrazolo[4,3-b]pyridine] showed an EC50 of 4.36 µM.

The molecule `Cn1cc(-c2ccc3[nH]nc(-c4nc5c(-c6ccc(F)cc6)ccnc5[nH]4)c3n2)c(CO)n1` [Compound 1129, (4-(3-(7-(4-Fluorophenyl)-3H-imidazo[4,5-b]pyridin-2-yl)-1H-pyrazolo[4,3-b]pyridin-5-yl)-1-methyl-1H-pyrazol-3-yl)methanol] gave an EC50 of 0.342 µM. This EC50 lies about 13-fold lower than the previous one.

In turn, `Cc1ccc(-c2ccnc3[nH]c(-c4n[nH]c5ccc(-c6cncc(OC7CCCCC7)c6)nc45)nc23)s1` [Compound 735, 5-(5-(Cyclohexyloxy)pyridin-3-yl)-3-(7-(5-methylthiophen-2-yl)-3H-imidazo[4,5-b]pyridin-2-yl)-1H-pyrazolo[4,3-b]pyridine] registered an EC50 of 0.139 µM.

With `Cc1ccc(-c2ccnc3[nH]c(-c4n[nH]c5ccc(-c6cncc(NC(=O)C7CCCC7)c6)nc45)nc23)s1` [Compound 414, N-(5-(3-(7-(5-Methylthiophen-2-yl)-3H-imidazo[4,5-b]pyridin-2-yl)-1H-pyrazolo[4,3-b]pyridin-5-yl)pyridin-3-yl)cyclopentanecarboxamide], the EC50 came out at 0.066 µM.

Consider `c1cc(-c2ccnc3[nH]c(-c4n[nH]c5ccc(-c6cncc(OC7CCNCC7)c6)nc45)nc23)ccn1` [Compound 576, 5-(5-(Piperidin-4-yloxy)pyridin-3-yl)-3-(7-(pyridin-4-yl)-3H-imidazo[4,5-b]pyridin-2-yl)-1H-pyrazolo[4,3-b]pyridine], for which the EC50 stood at 4.07 µM.

As for `COc1cccc(-c2ccnc3[nH]c(-c4n[nH]c5ccc(-c6cncc(O)c6)nc45)nc23)c1` [Compound 1030, 5-(3-(7-(3-Methoxyphenyl)-3H-imidazo[4,5-b]pyridin-2-yl)-1H-pyrazolo [4,3-b]pyridin-5-yl)pyridin-3-ol], the EC50 was more than 10 µM and the inhibition at 10 µM stood at 48%.

As for `O=C(Nc1cncc(-c2ccc3[nH]nc(-c4nc5c(-c6ccccn6)ccnc5[nH]4)c3n2)c1)c1ccccc1` [Compound 151, N-(5-(3-(7-(Pyridin-2-yl)-3H-imidazo[4,5-b]pyridin-2-yl)-1H-pyrazolo[4,3-b]pyridin-5-yl)pyridin-3-yl)benzamide], the concentration for a half-maximal effect (EC50) was more than 10 µM and the inhibition at 10 µM was found to be 0%.

Take `Cc1ncc(-c2ccc3[nH]nc(-c4nc5c(-c6ccoc6)ccnc5[nH]4)c3n2)n1C` [Compound 685, 5-(1,2-Dimethyl-1H-imidazol-5-yl)-3-(7-(furan-3-yl)-3H-imidazo[4,5-b]pyridin-2-yl)-1H-pyrazolo[4,3-b]pyridine]: the EC50 was more than 10 µM and the inhibition at 10 µM turned out to be 0%.

Regarding `Cn1cc(-c2ccc3[nH]nc(-c4nc5c(-c6ccc7c(c6)OCO7)ccnc5[nH]4)c3n2)c(CO)n1` [Compound 1152, (4-(3-(7-(Benzo[d][1,3]dioxol-5-yl)-3H-imidazo[4,5-b]pyridin-2-yl)-1H-pyrazolo[4,3-b]pyridin-5-yl)-1-methyl-1H-pyrazol-3-yl)methanol], the EC50 stood at 0.317 µM.

In turn, `CC(C)(C)CC(=O)Nc1cncc(-c2ccc3[nH]nc(-c4nc5cccnc5[nH]4)c3n2)c1` [Compound 268, N-(5-(3-(3H-Imidazo[4,5-b]pyridin-2-yl)-1H-pyrazolo[4,3-b]pyridin-5-yl)pyridin-3-yl)-3,3-dimethylbutanamide] displayed an EC50 of 7.2 µM.

Turning to `O=C(Nc1cncc(-c2ccc3[nH]nc(-c4nc5c(-c6ccccc6F)ccnc5[nH]4)c3n2)c1)C1CCCC1` [Compound 78, N-(5-(3-(7-(2-fluorophenyl)-3H-imidazo[4,5-b]pyridin-2-yl)-1H-pyrazolo [4,3-b]pyridin-5-yl)pyridin-3-yl)cyclopentanecarboxamide], a half-maximal effect (EC50) was put at 2.83 µM.

Molecule `CN1CCN(c2ccnc3[nH]c(-c4n[nH]c5ccc(-c6cncc(OC7CCCCC7)c6)nc45)nc23)CC1` [Compound 639, 5-(5-(Cyclohexyloxy)pyridin-3-yl)-3-(7-(4-methylpiperazin-1-yl)-3H-imidazo[4,5-b]pyridin-2-yl)-1H-pyrazolo[4,3-b]pyridine] had a concentration giving a half-maximal response (EC50) of 3.27 µM.

`CS(=O)(=O)NCc1cc(F)cc(-c2ccnc3[nH]c(-c4n[nH]c5ccc(-c6cncc(NC(=O)CC7CCNCC7)c6)nc45)nc23)c1` [Compound 769, N-(5-(3-(7-(3-Fluoro-5-(methylsulfonamidomethyl)phenyl)-3H-imidazo[4,5-b]pyridin-2-yl)-1H-pyrazolo[4,3-b]pyridin-5-yl)pyridin-3-yl)-2-(piperidin-4-yl)acetamide] had an EC50 of 4.46 µM.

In the case of `Oc1cncc(-c2ccc3[nH]nc(-c4nc5cccnc5[nH]4)c3n2)c1` [Compound 661, 5-(3-(3H-Imidazo[4,5-b]pyridin-2-yl)-1H-pyrazolo[4,3-b]pyridin-5-yl) pyridin-3-ol], the EC50 is more than 10 µM and the inhibition at 10 µM turned out to be 6.2%.

The molecule `CN(C)CCOc1cncc(-c2ccc3[nH]nc(-c4nc5c(-c6cccs6)ccnc5[nH]4)c3n2)c1` [Compound 707, N,N-Dimethyl-2-((5-(3-(7-(thiophen-2-yl)-3H-imidazo[4,5-b]pyridin-2-yl)-1H-pyrazolo[4,3-b]pyridin-5-yl)pyridin-3-yl)oxy)ethan-1-amine] displayed an EC50 of 2.43 µM.

On to `c1cnc2[nH]c(-c3n[nH]c4ccc(-c5cn[nH]c5)nc34)nc2c1` [Compound 651, 3-(3H-Imidazo[4,5-b]pyridin-2-yl)-5-(1H-pyrazol-4-yl)-1H-pyrazolo[4,3-b]pyridine], for which the EC50 is more than 10 µM and the inhibition at 10 µM was 28.6%.
